Results taken from US12263144B2, “Methods of treating IgA nephropathy with thiol-containing molecules” (Accubit LLC—Biotechnology, priority 2020, dated 2025).

Key:
Type in all cases: biochemical
[1] = target: T1, human IgA1 (poly-IgA1) (Homo sapiens, UniProt P01876); experiment: SEC of native human IgA1 treated ex vivo; conditions: total IgA1 from human sera, FIG. 5 E-F
T1 construct: human IgA1 whole molecule was purified from pooled plasma of IgA nephropathy patients; from tissue
From the text: (§1) IgA1 from IgA nephropathy patient sera was purified by Jacalin (Thermo Scientific, USA)-directed affinity chromatography. Poly-IgA1 contents were further enriched via running Superdex 200 Increase gel filtration molecular sieve (GE Biosciences) and collecting high-molecular weight fractions from an AKTA protein purification system (GE Biosciences). Human serum from healthy donors was purchased from Sigma-Aldrich and total IgA1 was also purified by running Jacalin-directed chromatography. Purified total IgA1 was used for injecting mice.
(§2) The overall complex size of IgA aggregates was determined either by size-exclusion chromatography (SEC: Superdex 200 Increase 10/300 by GL Cytiva), or by SDS-PAGE. For evaluating the involvement of intermolecular disulfide connectivity in IgA complexes, IgA samples were treated with either reducing agents, such as DTT, TCEP or reduced glutathione (Sigma), or interventional drugs, such as cysteamine (Sigma), WR-1065 (Sigma) and N-Acetyl-L-cysteine (VWR Chemicals) in phosphate-buffered saline (PBS) pH7.4. Before running on SEC, samples were treated with the drugs at indicated concentrations at 37° C. for one hour.
(§3) In the meantime, the SEC column was also equilibrated with PBS supplemented with the reducing agent at the same concentration. For running SEC, 100 μL of the recombinant IgA (concentration varies between 1 mg/mL and 8 mg/mL) or purified native human IgA1 (˜1 mg/mL) was loaded to the column and UV absorption was recorded following elution. Recombinant IgA typically formed two elution peaks: a minor peak of ˜800 kDa poly-rIgA followed by a major peak of ˜170 kDa of monomeric rIgA. The ratios between poly-rIgA and mono-rIgA were calculated as between the corresponding areas under the curve (AUC), and the treatment effect of the thiol agents was judged by the reduction of the poly-rIgA level with a compensatory increase of the mono-rIgA content.
In addition, human IgA1 whole molecule was purified from pooled plasma of IgA nephropathy patients and subjected the sample to different concentrations of cysteamine (FIG. 5, part C). […]

[2] = system: natural IgA1 assembly (two heavy chains and two light chains connected via disulfide bonds); experiment: Ex vivo study: integrity of natural IgA assembly under thiol/reducing agents
Experimental: as §2
(§4) Proteins in sample buffer (Bio-Rad Laboratories, Hercules, CA, USA) with or without TCEP (for reducing or nonreducing condition, respectively) were resolved by 4-12% SDS-PAGE (Bio-Rad Laboratories). IgA bands were subsequently visualized either by staining with GelCode Blue (Thermo Fisher Scientific), or by Western blotting on PVDF membrane. For Western blotting, 5% non-fat milk was used in blocking for one hour at room temperature. The membrane was then incubated with mouse anti-Histag antibody (Thermo Scientific), or HRP-conjugated goat anti-rat IgA α-chain antibody (Cat. ab97185, Abcam, UK), or goat anti-human IgA HRP antibody (Cat: 2050-05, SouthernBiotech) for detecting rat or human IgA (Fc), respectively. The membrane was developed using the Clarity™ ECL substrate (Bio-Rad Laboratories, CA, USA).

[3] = system: Rat rIgA (poly-rIgA); experiment: SEC determination of poly- and mono-rIgA content of rat rIgA after treatment; conditions: for disassembly of poly-rIgA into monomers (SEC): rat rIgA, reducing agents added, FIG. 3 A-C
Experimental: as §2
as §3, with “Recombinant IgA typically formed two elution peaks: a minor peak of ˜800 kDa poly-rIgA followed by a major peak of ˜170 kDa of monomeric rIgA.” left out
To further investigate specific cysteine residue(s) involved in IgA complexes, expression vectors were constructed to produce recombinant IgA (rIgA) Fc segments of rat and human sequences (FIG. 2, part A) as discussed above. Rat IgA analogs were expressed in BL21 DE3 strain of E. coil and recombinant protein were purified from the bacterial lysate using Histrap HP columns (GE Healthcare) by running fast protein liquid chromatography (FPLC). Human recombinant IgA mimetics were produced from human embryo kidney (HEK293) cells by transfection of the expressing plasmids. Recombinant IgA proteins expressed by the cells were secreted into the culture medium, and they were subsequently purified by Histrap HP columns by FPLC using standard procedures. […] Rat rIgA was produced from bacterial expression as discussed above.
Cysteamine (Cy), an aminothiol that can react with cysteine, is both a natural metabolite produced in mammalian cells and a clinical drug used for treatment of cystinosis. In cystinosis, cysteamine reduces the disulfide bond in cystine, which is the oxidated dimer of amino acid cysteine (FIG. 4, part A). In the context of cysteine residues in proteins, endogenous cysteamine as well as the therapeutic drug forms mixed disulfides with susceptible cysteine sulfhydryl groups in a process called cysteamination (FIG. 4, part B). It was sought to determine whether cysteamine could reduce Cys471-disulfides to disaggregate poly-IgA. Rat rIgA (SEQ ID NO.4) was treated with various concentrations of cysteamine for one hour at 37° C. in phosphate buffered saline at neutral pH and the protein complexes were analyzed by SEC. The SEC column (model: Superdex 200 Increase 10/300 GL by Cytiva) was preequilibrated with the same buffer supplemented with the same concentration of cysteamine.

[4] = system: rat poly-rIgA; experiment: Nonreducing SDS-PAGE analysis of rat poly-rIgA after pretreatment; conditions: cysteamine 0 to 10 mM; TCEP 10 mM; untreated poly-IgA >250 kDa
Experimental: as §4
To further ascertain the mechanism-of-action of cysteamine in targeting disulfides, nonreducing SDS-PAGE analysis was performed of rat poly-rIgA (FIG. 5, part D). The samples were pretreated with 0 to 10 mM cysteamine, or 10 mM TCEP as positive control. As expected, poly-IgA appeared as >250 kDa bands on SDS-PAGE. Dose-dependent response of poly-rIgA to cysteamine was evident, with majority of the protein running at ˜64 kDa of disaggregated monomers.

[5] = target: T2, poly-IgA complexes from IgA nephropathy patients' plasma (Homo sapiens, UniProt P01876); experiment: SDS-PAGE / anti-IgA Western blotting of poly-IgA from IgA nephropathy patients' plasma with or without reducing agent; conditions: reducing condition
T2 construct: human IgA1 whole molecule was purified from pooled plasma of IgA nephropathy patients; from tissue
From the text: as §1
Proteins in sample buffer (Bio-Rad Laboratories, Hercules, CA, USA) with or without TCEP (for reducing or nonreducing condition, respectively) were resolved by 4-12% SDS-PAGE (Bio-Rad Laboratories). IgA bands were subsequently visualized either by staining with GelCode Blue (Thermo Fisher Scientific), or by Western blotting on PVDF membrane. […]
In this Example, it was sought to isolate high molecular weight IgA complexes, such as poly-IgA, from plasma of IgA nephropathy patients. […] By running SDS-PAGE of the poly-IgA fraction under both reducing and nonreducing conditions, it was determined that the molecular complexes of IgA were connected through disulfide bridges (FIG. 1, part B). […] IgA1 complexes were extracted from individual patients by SEC and analyzed the contents by SDS-PAGE.

T1 sequence (P01876 1-353 isoform P01876-1): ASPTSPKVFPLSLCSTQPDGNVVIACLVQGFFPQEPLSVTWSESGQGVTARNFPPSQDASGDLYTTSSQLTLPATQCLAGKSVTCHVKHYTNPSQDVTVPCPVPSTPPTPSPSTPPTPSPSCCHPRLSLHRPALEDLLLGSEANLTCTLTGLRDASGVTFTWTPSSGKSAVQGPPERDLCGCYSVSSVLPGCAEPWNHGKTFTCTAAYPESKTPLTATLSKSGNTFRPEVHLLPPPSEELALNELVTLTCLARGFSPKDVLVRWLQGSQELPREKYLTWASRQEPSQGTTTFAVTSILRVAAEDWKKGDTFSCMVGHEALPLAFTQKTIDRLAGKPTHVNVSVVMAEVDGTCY
T2 sequence (P01876 1-353 isoform P01876-1, one chain of several): as the sequence (P01876 1-353 isoform P01876-1) above

SMILES | poly-IgA level (SEC) [1] | disruption of natural IgA assembly / normal pairing of IgA heavy chains [2] | disassembly of poly-rIgA into monomers (SEC) [3] | further results
NCCCNCCS [WR-1065, 2-[(3-aminopropyl)amino]ethanethiol] | reduction of poly-IgA levels | did not cause unwanted disruption of natural IgA1 assembly |  | 
O=C(O)CCP(CCC(=O)O)CCC(=O)O [TCEP, tris(2-carboxyethyl)phosphine] |  | inadvertently dissociated normal pairing of IgA heavy chains | poly-rIgA disassembled into monomers | molecular weight of protein band after pretreatment (nonreducing SDS-PAGE) [4]: ~32 kDa; size of IgA band after reduction of ~600 kDa poly-IgA (Western blot) ([5]; pooled plasma of IgA nephropathy patients (n=10)): ~65 KDa
OCCS [2-mercaptoethanol] |  |  |  | size of IgA1 band after reduction of ~600 kDa poly-IgA1 (Western blot) ([5]; eight individual IgA nephropathy patients): ~65 kDa
O[C@@H](CS)[C@@H](O)CS (racemic) [DDT, 1,4-Dithiothreitol] |  | inadvertently dissociated normal pairing of IgA heavy chains | poly-rIgA disassembled into monomers | 
N[C@@H](CCC(=O)N[C@@H](CS)C(=O)NCC(=O)O)C(=O)O [glutathione] |  |  |  | effect on poly-IgA levels at comparable concentrations ([3]; compared with cysteamine, WR-1065, N-acetylcysteine): relatively modest effects on poly-IgA levels
CC(=O)N[C@@H](CS)C(=O)O [N-acetylcysteine, N-acetyl-L-cysteine] | lowered poly-IgA levels in a dose-dependent manner | did not cause unwanted disruption of natural IgA1 assembly |  | 
